Measured values from paper PMC3687097 (Diabetes Therapy, 2013).
“Also recorded” adds a separate entry of the source. Like-named read-outs stand apart in the source and are kept apart here.

Key:
[1] = for Patients reporting an adverse event: 22 patients
[2] = cited from earlier work

Row | Episodes of hypoglycemia ([1]; dapagliflozin 10 mg single oral dose, with and without voglibose) | SMILES | Patients reporting an adverse event ([1]; pharmacokinetic sampling period 1: dapagliflozin with voglibose) | Patients reporting an adverse event ([1]; pharmacokinetic sampling period 2: dapagliflozin only) | Intensity of observed AEs ([1]; whole study, dapagliflozin 10 mg with or without voglibose) | Systemic / gastrointestinal absorption after oral administration [2]
1 | no episodes of hypoglycemia | CCOc1ccc(Cc2cc([C@@H]3O[C@H](CO)[C@@H](O)[C@H](O)[C@H]3O)ccc2Cl)cc1 [Dapagliflozin] | one patient | three patients | mild or moderate | –
2 | – | OCC(CO)N[C@H]1C[C@](O)(CO)[C@@H](O)[C@H](O)[C@H]1O [Voglibose] | – | – | – | poorly absorbed; also recorded: minimal systemic absorption
